Measured values from patent publication US10392390B2, “5-HT2C receptor agonists and compositions and methods of use” (Arena Pharmaceuticals, Inc., priority 2015, dated 2019).

Key:
5-HT2C receptor [1] = target: T1, 5-HT2C receptor (Homo sapiens, UniProt P28335); assay: IP accumulation assay in HEK293 cells expressing recombinant 5-HT2 receptors; assay type: cell-based; conditions: 2 h at 37° C.
T1 construct: expressed in transfected cells; host or cells: HEK293
T1 sequence (P28335 33-458): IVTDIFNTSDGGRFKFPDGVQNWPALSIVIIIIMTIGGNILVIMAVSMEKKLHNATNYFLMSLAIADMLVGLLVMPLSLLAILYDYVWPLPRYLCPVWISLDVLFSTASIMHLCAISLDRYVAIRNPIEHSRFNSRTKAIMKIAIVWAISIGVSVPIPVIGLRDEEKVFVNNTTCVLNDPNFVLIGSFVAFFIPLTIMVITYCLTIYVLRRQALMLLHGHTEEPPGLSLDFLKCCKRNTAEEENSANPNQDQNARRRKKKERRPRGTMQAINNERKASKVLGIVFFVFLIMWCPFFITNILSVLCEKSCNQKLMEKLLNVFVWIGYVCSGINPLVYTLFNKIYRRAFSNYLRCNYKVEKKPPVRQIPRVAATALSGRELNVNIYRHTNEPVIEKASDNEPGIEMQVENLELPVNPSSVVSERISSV
Protocol: (§1) HEK293 cells expressing recombinant 5-HT2 receptors were added to sterile poly-D-lysine-coated 96-well microtiter plates (35,000 cells/well) and labeled with 0.6 μCi/well of [^3H]inositol in myoinositol-free DMEM for 18 h. Unincorporated [^3H]inositol was removed by aspiration and replaced with fresh myoinositol-free DMEM supplemented with LiCl (10 mM final) and pargyline (10 μM final). Serially diluted test compounds were then added and incubation was conducted for 2 h at 37° C. Incubations were then terminated by lysing cells with the addition of ice-cold 0.1 M formic acid followed by freezing at −80° C. After thawing, total [^3H]inositol phosphates were resolved from [^3H]inositol using AG1-X8 ion exchange resin (Bio-Rad) and [^3H]inositol phosphates were measured by scintillation counting using a Perkin Elmer TopCount® scintillation counter. All EC50 determinations were performed using 10 different concentrations and triplicate determinations were made at each test concentration.

5-HT2B receptor = target: T2, 5-HT2B receptor (Homo sapiens, UniProt P41595); assay: Radioligand binding assay, [125I]DOI competition; conditions: HEK293 cell membranes, read-out: DOI Binding Ki 2B
T2 construct: expressed in transfected cells; host or cells: HEK293
Protocol: (§2) HEK293 cells stably expressing recombinant 5-HT2 receptors were harvested, suspended in ice-cold phosphate buffered saline, pH 7.4 (PBS), and then centrifuged at 48,000 g for 20 min at 4° C. The resulting cell pellet was then re-suspended in wash buffer containing 20 mM HEPES, pH 7.4 and 0.1 mM EDTA, homogenized on ice using a Brinkman Polytron, and centrifuged (48,000 g for 20 min at 4° C.). The pellet was then resuspended in 20 mM HEPES, pH 7.4, homogenized on ice, and centrifuged (48,000 g for 20 min at 4° C.). Crude membrane pellets were stored at −80° C. until used for radioligand binding assays.
(§3) Experiments comprised addition of 95 μL, of assay buffer (20 mM HEPES, pH 7.4, 10 mM MgCl2), 50 μL, of membranes, 50 μL, of radioligand stock, and 5 μL of test compound diluted in assay buffer to 96-well microtiter plates, which were then incubated for 1 h at room temperature. Assay incubations were terminated by rapid filtration through PerkinElmer F/C filtration plates under reduced pressure using a 96-well Packard filtration apparatus, followed by washing three times with ice cold assay buffer. Plates were then dried at 45° C. for a minimum of 2 h. Finally, 25 μL of BetaScint™ scintillation cocktail was added to each well and the plates were counted in a Packard TopCount® scintillation counter. […]

5-HT2A receptor [2] = target: T3, 5-HT2A receptor (Homo sapiens, UniProt P28223); assay: Radioligand binding assay, [125I]DOI competition; conditions: HEK293 cell membranes, read-out: DOI Binding Ki 2A
T3 construct: expressed in transfected cells; host or cells: HEK293
Protocol: as §2, §3

5-HT2C receptor [3] = target: T1, 5-HT2C receptor; assay: Radioligand binding assay, [125I]DOI competition; conditions: HEK293 cell membranes, read-out: DOI Binding Ki 2C
Protocol: as §2
Radioligand binding assays were performed using the commercially available 5-HT2 receptor agonist [^125I]DOI as the radioligand and nonspecific binding was determined in the presence of unlabeled DOI at a saturating concentration of 10 μM. Competition experiments utilized 5-HT2 receptor expressing HEK293 cell membranes obtained as described in Example 3 (15-25 μg membrane protein/well) and radioligand at final assay concentrations of 0.4 to 0.6 nM. […] Finally, 25 μL of BetaScint™ scintillation cocktail was added to each well and the plates were counted in a Packard TopCount® scintillation counter. […]

5-HT2A receptor [4] = target: T3, 5-HT2A receptor; assay: IP accumulation assay in HEK293 cells expressing recombinant 5-HT2 receptors; assay type: cell-based; conditions: 2 h at 37° C.
Protocol: as §1

[5] = reports that led to withdrawal in 1998; cited from earlier work
[6] = a patient with Lennox-Gastaut syndrome; cited from earlier work
[7] = one study, patients without diabetes; cited from earlier work
[8] = cited from earlier work
[9] = cited from earlier work; remark: listed apart in the source
[10] = pivotal phase 3 program, up to two years
[11] = top quartile of patients, second phase 3 trial

T3 sequence (P28223 whole entry): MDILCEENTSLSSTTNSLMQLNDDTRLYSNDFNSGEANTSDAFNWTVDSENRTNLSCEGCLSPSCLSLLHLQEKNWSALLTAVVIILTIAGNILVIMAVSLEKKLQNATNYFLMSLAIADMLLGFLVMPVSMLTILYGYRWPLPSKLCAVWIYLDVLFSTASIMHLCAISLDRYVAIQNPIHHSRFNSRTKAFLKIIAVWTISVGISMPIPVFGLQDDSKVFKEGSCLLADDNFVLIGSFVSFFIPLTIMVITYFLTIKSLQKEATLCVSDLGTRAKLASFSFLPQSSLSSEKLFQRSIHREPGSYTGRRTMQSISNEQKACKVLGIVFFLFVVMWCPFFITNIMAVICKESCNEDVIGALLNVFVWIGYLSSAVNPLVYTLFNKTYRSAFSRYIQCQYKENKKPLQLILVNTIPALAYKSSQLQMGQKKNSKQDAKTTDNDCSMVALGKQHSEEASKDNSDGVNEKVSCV
T2 sequence (P41595 whole entry): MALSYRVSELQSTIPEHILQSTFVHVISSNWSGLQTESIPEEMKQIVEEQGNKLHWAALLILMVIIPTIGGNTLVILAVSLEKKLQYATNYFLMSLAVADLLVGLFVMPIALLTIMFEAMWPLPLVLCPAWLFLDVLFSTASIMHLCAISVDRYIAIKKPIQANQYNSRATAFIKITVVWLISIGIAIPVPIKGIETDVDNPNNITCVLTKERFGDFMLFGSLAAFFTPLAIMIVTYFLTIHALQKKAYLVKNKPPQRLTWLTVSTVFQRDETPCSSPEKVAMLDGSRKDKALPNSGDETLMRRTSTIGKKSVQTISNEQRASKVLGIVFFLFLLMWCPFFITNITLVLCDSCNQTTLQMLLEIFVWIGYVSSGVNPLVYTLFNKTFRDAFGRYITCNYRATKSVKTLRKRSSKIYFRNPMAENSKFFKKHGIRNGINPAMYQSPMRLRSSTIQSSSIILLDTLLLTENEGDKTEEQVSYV

Compound `CCC1CN2CCNCc3ccc(C(=O)NCC(F)F)c1c32` (single isomer, unassigned) [1st eluting enantiomer in example 1.5, N-(2,2-difluoroethyl)-7-ethyl-1,2,3,4,6,7-hexahydro-[1,4]diazepino[6,7,1-hi]indole-8-carboxamide] has an EC50 (5-HT2C receptor [1]) of 15200 nM.
For `CCC1CN2CCNCc3ccc(C(=O)NCC(F)F)c1c32` (single isomer, unassigned) [2nd eluting enantiomer in example 1.5, N-(2,2-difluoroethyl)-7-ethyl-1,2,3,4,6,7-hexahydro-[1,4]diazepino[6,7,1-hi]indole-8-carboxamide], the Ki (5-HT2B receptor) was 92.3 µM, the EC50 (5-HT2C receptor [1]) was 7.09 nM and the Ki (5-HT2A receptor [2]) was 6.58 µM. The Ki (5-HT2C receptor [3]) was 19.7 nM.
`CC1(C)CN2CCNCc3ccc(C(=O)NCC(F)F)c1c32` [Compound 6, N-(2,2-difluoroethyl)-7,7-dimethyl-1,2,3,4,6,7-hexahydro-[1,4]diazepino[6,7,1-hi]indole-8-carboxamide] gave an EC50 (5-HT2C receptor [1]) of 195 nM.
Compound `O=C(NCC(F)F)c1ccc2c3c1C1(CCC1)CN3CCNC2` [Compound 7, N-(2,2-difluoroethyl)-2,3,4,6-tetrahydro-1H-spiro[[1,4]diazepino[6,7,1-hi]indole-7,1′-cyclobutane]-8-carboxamide] has a Ki (5-HT2B receptor) of 6.81 µM, an EC50 (5-HT2C receptor [1]) of 17.7 nM and a Ki (5-HT2A receptor [2]) of 6.75 µM. The EC50 (5-HT2A receptor [4]) was 160 nM and the Ki (5-HT2C receptor [3]) was 36.6 nM.
For `CCN[C@@H](C)Cc1cccc(C(F)(F)F)c1` [d-fenfluramine], the “patients with reported cardiac valve defects” value [5] is given as “up to one third”.
For `CCNC(C)Cc1cccc(C(F)(F)F)c1` (stereo not drawn) [fenfluramine], the “reduction in seizure frequency during treatment” value [6] is listed as “two-thirds”.
In the case of `C[C@H]1CNCCc2ccc(Cl)cc21` [lorcaserin, (R)-8-chloro-1-methyl-2,3,4,5-tetrahydro-1H-3-benzazepine], the “insulin resistance (HOMA-IR) change” value [7] is listed as −0.4, the “reduction in HbA1c” value ([8]; 10 mg BID, type 2 diabetes) is listed as 0.9% and the “decrease of mean daily doses of sulfonylureas and thiazolidinediones” value ([8]; patients with type 2 diabetes) is listed as 16-24%. The “excess body weight lost” value ([9]; first phase 3 trial, based on a normal BMI of 25) was “about one-third”, the “patients who achieved at least 5% weight loss” value [9, 10] was “About two-thirds” and the “patients who achieved at least 10% weight loss” value [9, 10] was “over one-third”. The average weight loss [9, 11] was 35 pounds and the “average weight loss, of body weight” value [9, 11] was 16%.
